Measured values reported in patent US6627623B2, “Inducing cell apoptosis and treating cancer using 1-O-acetylbritannilactone or 1,6-O,O-diacetylbritannilactone” (priority 2001, dated 2003).
pIC50: −log10 of the molar value. Values joined by “and” are separate entries in the source; they are usually repeats but may differ in a detail not shown here. Identical values can stand only once.

Legend:
Bcl-2 [1] = experiment: Bcl-2 phosphorylation in OVCAR ovarian cancer cells; assay type: cell-based
Protocol: (§1) Experiments were performed to determine the activity of two of the sesquiterpene compounds isolated from Inula britannica, OABL and OODABL, as cancer preventative agents. Using a Western blot technique, the ability of these compounds to phosphorylate Bcl-2 in cancer cells was examined. […] OODABL induced Bcl-2 phosphorylation at lower effective doses, 2.5 and 5 μM.
(§2) In two ovarian cancer cell lines, OVCAR and PA-1, similar results were seen. In OVCAR cells, OODABL induced Bcl-2 phosphorylation at a dose of 5 μM, while OABL induced Bcl-2 phosphorylation at a dose of 10 μM. In PA-1 cells, OODABL induced Bcl-2 phosphorylation at a dose of 5 μM, while OABL induced Bcl-2 phosphorylation at a dose of 10 μM.

[2] = test system: breast cancer cell line T47D; experiment: Cell cycle analysis by flow cytometry; assay type: cell-based; settings: T47D cells, 20 μM, compared to control cells
Protocol: The effect of OODABL on cell cycle was analyzed by flow cytometery using breast cancer cell lin T47D.

Bcl-2 [3] = experiment: Bcl-2 phosphorylation in a prostate cancer cell line; assay type: cell-based
Protocol: as §1
In a prostate cancer cell line, these compounds were also able to induce Bcl-2 phosphorylation. OODABL induced Bcl-2 phosphorylation at a dose of 5 μM while OABL induced Bcl-2 phosphorylation at a dose of 10 μM.

RKO cells = experiment: Clonogenic assay, RKO; assay type: cell-based; settings: 15 days, read-out: IC50 clonogenic assay (colonies counted)
Protocol: (§3) Cell cytotoxicity was also assessed by a clonogenic assay. MCF-7 breast cells were treated with various concentrations of OODABL (625 nm, 1.25, 2.5, 5 and 10 μM) for 15 days and cells were then stained with methylene blue and colonies counted. […] PC-3 prostate cells were treated with various concentrations of OODABL (20 and 200 nm, and 2 and 20 μM) for 15 days and cells were then stained with methylene blue and colonies counted. The IC50 was in the range of 200 nm OODABL. RKO cells were treated with various concentrations of OODABL (20 and 200 nm, and 2 and 20 μM) for 15 days and cells were then stained with methylene blue and colonies counted. The IC50 was in the range of 20 μM OODABL. Baby rat kidney cells were transformed with E1A and transfected with the Bcl-2 gene to form BRK-4B-Bcl-2 cells. These cells were treated with various concentrations of OODABL (20 and 200 nm, and 2, 10 and 20 μM) for 15 days and cells were then stained with methylene blue and colonies counted. The IC50 was in the range of 200 nM OODABL. Baby rat kidney cells were transformed with E1A and transfected with Bcl-2 gene in which phosphorylation sites were mutated to form phosphomutant BRK-4B-Bcl-2 cells. These cells were treated with various concentrations of OODABL (20 and 200 nm, and 2 and 20 μM) for 15 days and cells were then stained with methylene blue and colonies counted. […]

PC-3 prostate cells = experiment: Clonogenic assay, PC-3; assay type: cell-based; settings: PC-3 cells, 15 days; read-out: IC50 clonogenic assay (colonies counted)
Protocol: as §3

MCF-7 cells = experiment: MTT cell viability assay, MCF-7; assay type: cell-based
Protocol: (§4) Cell viability was then assessed in a microculture tetrazolium/formazan assay (MTT; Scudiero, D. A. et al. 1988. Cancer Res. 48:4827-4833) using a variety of cell lines. Absorbance was measured at 550 nm and cell viability was expressed as the percentage of drug treated cells relative to that of controls. The IC50 was then defined as the concentration of drug that produced a 50% decrease in cell viability relative to controls. OODABL was first tested in a variety of cell lines. […] In NIH 3T3 (normal mouse fibroblasts) cells treated with various concentrations of OODABL (1, 10, 20 and 50 μM OODABL), cell viability was decreased in a dose-dependent manner with an IC50 of 50 μM.
(§5) OABL was then tested in some of these same cell lines. In MCF-7 cells, OABL was tested at doses of 0.3 nm, 3 nm, 30 nm, 300 nm, 3 μM, and 30 μM.

Bcl-2 [4] = experiment: Bcl-2 phosphorylation by Western blot in MCF-7 cells; assay type: cell-based; settings: MCF-7 breast cancer cells
Protocol: as §1

DU-145 cells = experiment: MTT cell viability assay, DU-145; assay type: cell-based
Protocol: as §4, §5

[5] = test system: Bcl-2 (phosphorylation sites mutated); experiment: Bcl-2 phosphorylation by Western blot in mutated BRK-4B-Bcl-2 cells; assay type: cell-based; settings: mutated rat kidney cells, 12 hours
Protocol: (§6) The level of Bcl-2 phosphorylation was then assessed in the non-mutated and mutated BRK-4B-Bcl-2 cells using a Western blot assay. Cells were initially treated for 12 hours with the test compound, OODABL (at concentrations of 10, 20, 30, 40, or 60 μM). Taxol was used as a positive control at a concentration of 5 μM. Cells were then lysed in ice cold radio-immune precipitation buffer with inhibitors. Equivalent amounts of proteins were electrophoresed by 12% dodecyl sulfate-polyacrylamide gel electrophoresis and transferred to nitrocellulose. Bcl-2 and phosphorylated Bcl-2 proteins were detected using a monoclonal Bcl-2 primary antibody and a secondary goat anti-mouse horseradish peroxidase conjugated antibody followed by enhanced chemiluminescence detection.

PARP = PARP cleavage (apoptosis indicator) by Western blot in PA-1 cells; assay type: cell-based; settings: 24 hours
Protocol: Using cleavage of PARP as an indicator of apoptosis, the compositions of the present invention were tested in PA-1 ovary cells. PARP is a 116 kD nuclear poly (ADP-ribose)polymerase that appears to be involved in DNA-repair, predominantly in response to environmental stress (Satoh, M. S. and T. Lindahl. 1992. Nature 356:356-358). PARP is important for cells to maintain their viability. Cleavage of PARP facilitates cellular disassembly and serves as a marker of cells undergoing apoptosis (Oliver, F. J. et al. 1998. J. Biol. Chem. 273:33533-33539). This protein can be cleaved by many ICE caspases to form a 85 kD protein in cells undergoing apoptosis. PA-1 cells were treated with OODABL for 24 hours. Cells were lysed and PARP cleavage was measured by Western Blot using a monoclonal antibody to PARP (Pharmingen, Inc., San Diego, Calif.). OABL induced PARP cleavage at doses of 10 and 20 μM, while OODABL induced PARP cleavage at a dose of 5 μM.

PA-1 cells = experiment: MTT cell viability assay, PA-1; assay type: cell-based
Protocol: as §4, §5

Bcl-2 [6] = experiment: Bcl-2 phosphorylation by Western blot in non-mutated BRK-4B-Bcl-2 cells; assay type: cell-based, rat; settings: 12 hours
Protocol: as §6

[7] = test system: NIH 3T3 (normal mouse fibroblasts) cells; experiment: MTT cell viability assay, NIH 3T3; assay type: cell-based
Protocol: as §4

HL-60 cells = experiment: TUNEL assay (APO-BRDU flow cytometry), late apoptosis; assay type: cell-based; settings: 12 hours
Protocol: In a TUNEL assay, the effect of OODABL on late apoptosis was examined. HL-60 cells lines were subjected to flow cytometry analysis using APO-BRDU. Apoptosis was detected by incorporation of Br-dUTP using a fluorescein labeled anti-BrdU monoclonal antibody after treatment with a vehicle control, 1 μM camptothecin or 20 μM OODABL for 12 hours.

[8] = test system: phosphomutant BRK-4B-Bcl-2 cells; experiment: Clonogenic assay, phosphomutant BRK-4B-Bcl-2; assay type: cell-based, rat; settings: 15 days, read-out: IC50 clonogenic assay (colonies counted)
Protocol: as §3

BRK-4B-Bcl-2 cells = experiment: Clonogenic assay, BRK-4B-Bcl-2; assay type: cell-based, rat; settings: 15 days, read-out: IC50 clonogenic assay (colonies counted)
Protocol: as §3

Bcl-2 [9] = experiment: Bcl-2 phosphorylation in PA-1 ovarian cancer cells; assay type: cell-based; settings: PA-1 cells
Protocol: as §1, §2

[10] = test system: microtubules (tubulin) in MCF-7 cells; experiment: Microtubule indirect immunofluorescence in MCF-7 cells; assay type: cell-based; settings: 12 hours
Protocol: The effect of OODABL on microtubules was examined by indirect immunofluorescence of MCF-7 cells using an antibody to tubulin after 12 hours treatment with either a vehicle control, 10 μM paclitaxel (positive control), or 20 μM OODABL.

## C=C1C(=O)OC2CC(C)=C(C(C)CCCOC(C)=O)C(OC(C)=O)C12 (stereo not drawn) [OODABL, 1,6-O,O-diacetylbritannilactone]
Bcl-2 [1]
  dose inducing Bcl-2 phosphorylation: 5 µM
[2]
  effect on cell cycle: arrested cells at the G2/M phase
Bcl-2 [3]
  dose inducing Bcl-2 phosphorylation: 5 µM
RKO cells
  pIC50: ~4.70
PC-3 prostate cells
  pIC50: ~6.70
MCF-7 cells
  pIC50: > 4.90
Bcl-2 [4]
  effective dose inducing Bcl-2 phosphorylation: 2.5 µM and 5 µM
DU-145 cells; DU-145 cells
  pIC50: > 4.81
[5]; 10-60 μM
  level of Bcl-2 phosphorylation: no phosphorylation evident
PARP
  dose inducing PARP cleavage: 5 µM
PA-1 cells
  pIC50: > 5.11
Bcl-2 [6]; non-mutated cells, 10, 20, 30, 40, or 60 μM
  level of Bcl-2 phosphorylation: dose-dependent increase in Bcl-2 phosphorylation
[7]
  pIC50: 4.30
HL-60 cells; 20 μM
  late apoptosis (Br-dUTP incorporation): induce apoptosis
[8]
  pIC50: ~5.70
BRK-4B-Bcl-2 cells
  pIC50: ~6.70
Bcl-2 [9]
  dose inducing Bcl-2 phosphorylation: 5 µM
[10]; 20 μM
  effect on microtubules: polymerized microtubules

## C=C1C(=O)OC2CC(C)=C(C(C)CCCOC(C)=O)C(O)C12 (stereo not drawn) [OABL, 1-O-acetylbritannilactone]
Bcl-2 [1]
  dose inducing Bcl-2 phosphorylation: 10 µM
Bcl-2 [3]
  dose inducing Bcl-2 phosphorylation: 10 µM
Bcl-2 [4]
  effective dose inducing Bcl-2 phosphorylation: 10 µM and 20 µM
DU-145 cells; Du-145 cells, 4.68-100 μM
  cell viability (MTT), result in words: decreased cell viability
PARP
  dose inducing PARP cleavage: 10 µM and 20 µM
PA-1 cells
  pIC50: ~5.70
Bcl-2 [9]
  dose inducing Bcl-2 phosphorylation: 10 µM

## CC[C@@]1(O)C(=O)OCc2c1cc1n(c2=O)Cc2cc3ccccc3nc2-1 [camptothecin, reference compound]
HL-60 cells; 1 μM, positive control
  late apoptosis (Br-dUTP incorporation): induce apoptosis

## CC(=O)O[C@H]1C(=O)[C@@]2(C)[C@H]([C@H](OC(=O)c3ccccc3)[C@]3(O)C[C@H](OC(=O)[C@H](O)[C@@H](NC(=O)c4ccccc4)c4ccccc4)C(C)=C1C3(C)C)[C@]1(OC(C)=O)CO[C@@H]1C[C@@H]2O [paclitaxel, reference compound]
Bcl-2 [4]
  effective dose inducing Bcl-2 phosphorylation: 100 µM
[5]; 5 μM
  level of Bcl-2 phosphorylation: no phosphorylation evident
Bcl-2 [6]; non-mutated cells, 5 μM, positive control
  level of Bcl-2 phosphorylation: increased in protein phosphorylation
[10]; 10 μM, positive control
  effect on microtubules: polymerized microtubules
